Measurements from ChEMBL document CHEMBL1130604, “Synthesis and biological activity of novel thiazolidinediones” (1998).
Active and inactive are the calls of the source. The calls are words filed in the database; no cut-off is given here.

Assays:
[1] = test system: Mus musculus; test: Compound was tested for antidiabetic activity by measuring percentage reduction in plasma glucose at a dose of 30 mg/kg; assay type: functional
[2] = test system: Mus musculus; test: Compound was tested for antidiabetic activity by measuring percentage reduction in triglycerides at a dose of 30 mg/kg; NE=No effect; assay type: functional, organism-based; parameters: dose 30 mg/kg
[3] = test system: Rattus norvegicus; test: Compound was tested for antiinflammatory activity by measuring percentage reduction in inflammation at a dose of 100 mg/kg in rats; assay type: functional
[4] = test system: Mus musculus; test: Compound was tested for antidiabetic activity by measuring percentage reduction in plasma glucose at a dose of 30 mg/kg; NE=No effect; assay type: functional, organism-based; parameters: dose 30 mg/kg
[5] = test system: Rattus norvegicus; test: Compound was tested for antiinflammatory activity by measuring percentage reduction in inflammation at a dose of 100 mg/kg in rats; NE=No effect; assay type: functional, organism-based; parameters: dose 100 mg/kg
[6] = test system: Mus musculus; test: Compound was tested for antidiabetic activity by measuring percentage reduction in triglycerides at a dose of 30 mg/kg; assay type: functional

Compound	Reduction [1] [%]	Reduction [2]	Reduction [3] [%]	Reduction [4]	Reduction [5]	Reduction [6] [%]
COc1ccc2cc(/C(CC(C)=O)=C3\SC(=O)NC3=O)ccc2c1	16	inactive	25			
C/C(CCc1ccc2cc(OCC3(C)CCc4c(C)c(O)c(C)c(C)c4O3)ccc2c1)=C1/SC(=O)NC1=O (stereo unspecified)		inactive	12	inactive		
C/C(CCc1ccc2cc(O)ccc2c1)=C1\SC(=O)NC1=O	20	inactive			inactive	
COc1ccc2cc(CCC(C)C3SC(=O)NC3=O)ccc2c1 (stereo unspecified)	8		17			44
COc1ccc2cc(/C(CC(C)=O)=C3/SC(=O)NC3=O)ccc2c1		inactive	7	inactive		
COc1ccc2cc(CC/C(C)=C3/SC(=O)NC3=O)ccc2c1	16		10			50
COc1ccc2cc(/C(C)=C3/SC(=O)NC3=O)ccc2c1	26	inactive	7			
Cc1c(C)c2c(c(C)c1O)CCC(C)(COc1ccc(CC3SC(=O)NC3=O)cc1)O2 (stereo unspecified) [TROGLITAZONE]	16		3			50
O=C1NC(=O)C(Cc2ccc3cc(OCc4ccccc4F)ccc3c2)S1 (stereo unspecified) [NETOGLITAZONE]	60		18			72
COc1ccc2cc(CCC(C)=O)ccc2c1 [NABUMETONE]		inactive	30	inactive		
C/C(=C1/SC(=O)NC1=O)c1cccs1				inactive	inactive	18
C/C(=C1\SC(=O)NC1=O)c1ccco1	16	inactive	12			
